Source: patent publication US9464078B2, “Monohydrate of azaadamantane derivatives” (AbbVie Inc., priority 2010, dated 2016)
Where a name gives a salt, the structure may show the parent alone. Read-outs that look alike come from different tables or passages of the source.

Experiments:
Format in all cases: physicochemical
[1] = hygroscopicity by dynamic moisture sorption balance
Description: Dynamic moisture sorption balance (DMSB) was used to evaluate the hygroscopicity of the crystalline monohydrate compound. The hygroscopicity was evaluated using a dynamic moisture sorption balance (IGAsorp, Hiden Isochema) equipped with a data analyzer. The balance was calibrated using standardized weights of 20, 50, and 100 mg. The RH probe was calibrated using standardized salt solutions of lithium chloride, potassium carbonate, and sodium chloride. During the experiment, the flow rate of nitrogen gas at different relative humidity was 250 mL/min. For anhydrous materials, the sample was first dried with dry nitrogen at 50° C. for two hours. The temperature was then set to 25° C. and the relative humidity was changed from 0% to 90% and back to 0% at 10% intervals. For hydrated samples the temperature was set to 25° C. and the relative humidity was changed at 10% intervals from 30% to 90%, back to 10%, and then to 90%. For each step described herein, a one hour equilibration time period was used.

[2] = critical water activity for hydrate formation (PXRD of solids from methanol/water suspensions); settings: ambient temperature
From the text: The critical water activity of the monohydrate salt can be determined by mixing different ratios of organic solvents and water. The analysis of the water activity for these solvent mixtures are temperature dependent. Determination of the critical water activity typically comprises the following steps: (1) preparation of solvent mixtures with a range of water activities; (2) saturation of the organic solvent/water mixtures with the monohydrate salt; (3) the optional filtration of the saturated solution; (4) addition of a 1:1 solid mixture (e.g., 25 mg/phase) of the anhydrous and hydrated phases to the saturated organic solvent/water mixtures; (5) equilibration at the temperature of interest (3-5 days); and (6) analysis of the residual solids by the appropriate technique, as understood by one skilled in the art (e.g., PXRD) to determine the identity of the stable phases.
The inventors determined the critical water activity for (4s)-4-(5-phenyl-1,3,4-thiadiazol-2-yloxy)-1-azatricyclo[3.3.1.1^3,7]decane dihydrogen citrate monohydrate at ambient temperature. Specifically, the inventors developed suspensions of the crystalline product in mixtures of methanol and water, with water activities of 0.20, 0.15, 0.10, and 0.05, performing powder X-ray diffraction patterns for each suspension, respectively. […]

[3] = solubility in water

Structure (SMILES): c1ccc(-c2nnc(O[C@@H]3C4CC5C[C@H]3C[N@](C5)C4)s2)cc1 [dihydrogen citrate monohydrate, (4s)-4-(5-phenyl-1,3,4-thiadiazol-2-yloxy)-1-azatricyclo[3.3.1.1^3,7]decane dihydrogen citrate monohydrate]
- hygroscopicity (in words) ([1]; citrate monohydrate): non-hygroscopic
- hygroscopicity (in words) ([1]; listed as crystalline monohydrate of (4s)-4-(5-phenyl-1,3,4-thiadiazol-2-yloxy)-1-azatricy, citrate monohydrate): non-hygroscopic
- weight change by dynamic moisture sorption ([1]; relative humidities from 0% to 90%, listed as crystalline monohydrate of (4s)-4-(5-phenyl-1,3,4-thiadiazol-2-yloxy)-1-azatricy, citrate monohydrate): < 0.2%

Structure (SMILES): c1ccc(-c2nnc(O[C@@H]3C4CC5C[C@H]3C[N@](C5)C4)s2)cc1 [(4s)-4-(5-phenyl-1,3,4-thiadiazol-2-yloxy)-1-azatricyclo[3.3.1.1^3,7]decane dihydrogen citrate]
- water activity of solvent at which the salt exists as the anhydrate [2]: ≤ 0.10
- water activity of solvent at which the salt exists as the monohydrate [2]: ≥ 0.15

Structure (SMILES): c1ccc(-c2nnc(O[C@@H]3C4CC5C[C@H]3C[N@](C5)C4)s2)cc1 [dihydrogen citrate anhydrate, (4s)-4-(5-phenyl-1,3,4-thiadiazol-2-yloxy)-1-azatricyclo[3.3.1.1^3,7]decane dihydrogen citrate]
- hygroscopicity (in words) [1]: non-hygroscopicity
- solubility [3]: 28 mg/mL
